pKd: −log10 of the molar value.
Molecular target: human UDG (Homo sapiens, UniProt P13051)
Test: Microscale thermophoresis (MST) binding
Set-up: Bacterially expressed and purified full-length human UDG; made in house
Description: The data for thermophoresis was recorded at 20° C. using the blue LED at 20% and IR-Laser at 40%. The isotherm derived from the raw data and fitted according to the law of mass action. […] Then 2 μL of 10× Sypro dye and 2 μL of ddH20 (Applied biosystems cat #4461141) were added. Monitoring of fluorescence took place for 2 hr (Bioraid CFX96, Hex filter, 25-97° C., 1.6° C./2 min). Negative (−) derivative RFU raw data and plots from the machine were obtained and analyzed. […] Melting temperature (Tm) value was taken directly from the midpoint on the −dRFU/dt vs. temperature graph. Each point on the graph represents an average of three data sets. Y error bars represent the standard deviation.
Bacterially expressed and purified full-length human UDG was fluorescently labeled with Atto488 NHS ester according to the manufacturer's protocol. […] The samples were loaded into silica premium capillaries (Polymicro Technologies) after incubation at room temperature for 15 min measurements were performed at 20° C., by using 20% LED power and 40% IR-laser power. Measurements were also carried out on 40 and 60% IR-Laser power for comparison. The raw data were exported to GraphPad Prism8 software, KD value was obtained by data fitting with a one-site specific binding model.

Chain of human UDG (P13051 whole entry): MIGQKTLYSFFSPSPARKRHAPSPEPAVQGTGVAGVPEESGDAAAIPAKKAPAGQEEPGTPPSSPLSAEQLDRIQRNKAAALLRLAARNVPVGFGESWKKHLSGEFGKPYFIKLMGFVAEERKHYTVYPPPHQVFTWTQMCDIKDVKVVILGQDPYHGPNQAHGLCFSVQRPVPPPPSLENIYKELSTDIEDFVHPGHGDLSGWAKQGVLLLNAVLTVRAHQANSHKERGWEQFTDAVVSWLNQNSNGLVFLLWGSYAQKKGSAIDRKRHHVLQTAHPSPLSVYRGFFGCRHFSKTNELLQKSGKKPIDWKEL

N.N.N.O=C(O)C1=CC(=C(c2ccc(O)c(C(=O)O)c2)c2ccc(O)c(C(=O)O)c2)C=CC1=O [ATA NH4 salt]
pKd (MST, 100 nM labelled UDG, estimated, read-out: binding dissociation constant (KD)): > 6.15
direct binding to the purified human UDG protein (more soluble ATA NH4 salt form): significant improvement in direct binding

Source: patent publication US20240156764A1, “INHIBITION OF URACIL DNA GLYCOSYLASE IN THE OPEN CONFORMATION” (CASE WESTERN RESERVE UNIVERSITY, priority 2022, published 2024)
